pEC50: −log10 of the molar value.
Tests used:
[1] = biological target: T1, hNcl (Homo sapiens, UniProt P19338); assay: DARTS experiment in HeLa cells; assay type: cell-based; set-up: endogenous in cells; host or cells: HeLa (cervical carcinoma); details: 5 or 20 μM, 2 h, subtilisin
Description: HeLa cells were seeded at 1.5 × 10^6 in 100 mm culture dishes and treated with compound 12 (5 or 20 μM) or 0.1% DMSO for 2 h at 37 °C. The HeLa cells were lysed in RIPA buffer (10 mM Tris HCl pH 7.6, 1 mM EDTA, 1% Triton X-100, 0.1% sodium deoxycholate, 0.1% SDS, 140 mM sodium chloride and 1 mM PMSF) supplemented with phosphatase inhibitors. The samples underwent proteolysis with subtilisin (enzyme:lysate 1:6000 w/w) for 30 min, and hydrolysis was stopped by adding Laemmli buffer 4× and incubating the mixture at 95 °C for 5 min. Finally, the samples were fractionated via SDS-PAGE and analyzed by Western blot. Densitometry of bands was performed with the ImageJ software. Experiments were performed in triplicate.
Target sequence in this assay (P19338 2-710): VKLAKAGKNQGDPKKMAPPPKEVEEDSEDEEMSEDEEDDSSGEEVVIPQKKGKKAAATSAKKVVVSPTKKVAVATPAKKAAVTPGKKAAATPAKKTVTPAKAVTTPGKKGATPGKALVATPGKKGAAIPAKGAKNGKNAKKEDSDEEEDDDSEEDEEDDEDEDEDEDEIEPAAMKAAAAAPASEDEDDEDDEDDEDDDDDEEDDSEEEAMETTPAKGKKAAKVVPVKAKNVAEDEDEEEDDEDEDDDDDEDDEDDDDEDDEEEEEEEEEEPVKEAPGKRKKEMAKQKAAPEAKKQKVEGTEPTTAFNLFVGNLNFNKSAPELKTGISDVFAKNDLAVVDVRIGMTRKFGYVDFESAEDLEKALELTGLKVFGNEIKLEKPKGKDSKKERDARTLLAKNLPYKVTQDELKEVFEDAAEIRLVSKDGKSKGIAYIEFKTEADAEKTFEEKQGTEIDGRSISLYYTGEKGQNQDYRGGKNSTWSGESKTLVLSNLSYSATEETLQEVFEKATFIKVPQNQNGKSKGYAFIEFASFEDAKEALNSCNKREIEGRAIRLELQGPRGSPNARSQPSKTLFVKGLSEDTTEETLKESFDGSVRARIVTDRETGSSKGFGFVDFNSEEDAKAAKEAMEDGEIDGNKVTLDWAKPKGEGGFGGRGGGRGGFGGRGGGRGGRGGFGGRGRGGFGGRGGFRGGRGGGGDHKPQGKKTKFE

[2] = system: HeLa cells; assay: Cell cycle analysis by cytofluorimetry (PI staining), HeLa cells; assay type: cell-based, human; details: 10 μM and 20 μM, 48 h
Description: HeLa cells were seeded at 5.0 × 10^5 in 100 mm culture dishes. The day after, the cells were treated with DMSO and 12 at 10 μM and 20 μM for 48 h. The cell cycle was evaluated by propidium iodide (PI) staining of permeabilized cells (BD FACSCalibur flow cytometer, Becton Dickinson, San Jose, CA, USA). Data from 5000 events per sample were collected. The percentages of the elements in the hypodiploid region and in G0/G1, S, and G2/M phases of the cell cycle were calculated using the CellQuest and MODFIT software, respectively. The apoptosis analysis was carried out according to the protocol described in Annexin V, FITC Apoptosis Detection Kit (Dojindo EU GmbH, Munich, Germany). The samples were detected by Flow Cytometry (BD FACSCalibur flow cytometer, Becton Dickinson, San Jose, CA, USA) and analyzed by BD FACSuite software.

[3] = system: Akt mRNA; assay: Real-time quantitative PCR of Akt mRNA in HeLa cells; assay type: cell-based, human; details: 20 μM, 4 h and 8 h
Excerpt: A significant validation of the proposed model was sought through specific in-cell biological assays. hNcl is a multifunctional protein involved in a number of cell pathways, depending on its cellular localization. However, one of the most relevant roles probably played by this protein is mRNA chaperone activity carried out through the interaction of the protein RBDs with the 3′-untranslated region of several target mRNAs. As hNcl has been reported to bind the mRNAs encoding for Bcl-2 [11] and Akt its inhibition can result in the destabilization of these two messengers.
Total RNA was isolated. Total RNA was isolated from cultured using Trizol Reagent (Life Technologies, Grand Island, NY, USA) according to the manufacturer instructions and spectrophotometrically quantified […] and assessed by agarose gel electrophoresis. […] To quantify specific mRNAs, real-time PCR assays were conducted using the following primer sets: forward Akt: 5′-TCTACACCCACAGATGACAG-3′; reverse Akt: 5′-CTCAAATGCACCCGAGAAAT-3′; forward Bcl-2: 5′-GGAAGTGAACATTTCGGTGAC-3′; reverse Bcl-2: 5′-CTCCATCAGCTTCCAGACAT-3′; forward 18S 5′-CGATGCTCTTAGCTGAGTGT-3′; reverse 18S 5′-GGTCCAAGAATTTCACCTCT-3′.

[4] = system: hNcl; assay: Western blot of hNcl and phosphorylated hNcl in HeLa cells; assay type: cell-based, human; details: cancer cells
Excerpt: Finally, we determined whether the treatment with 12 could affect hNcl expression, phosphorylation, and cellular localization.

[5] = system: Akt; assay: Western blot of Akt protein in HeLa cells; assay type: cell-based, human
[6] = system: PBMC; assay: Toxicity against PBMC; assay type: cell-based
[7] = biological target: T1, hNcl; assay: CETSA-based EC50 determination in HeLa cells; assay type: cell-based; set-up: endogenous in cells; host or cells: HeLa (cervical carcinoma); details: 2 h, heated at 55.5 °C, read-out: EC50 (concentration producing half of the maximum effect on hNcl stabilization)
Description: The 12/hNcl interaction was also investigated using CETSA and its effect on the hNcl denaturation temperature (Tm) in the cells was analyzed. HeLa cells incubated with 12, oridonin or the vehicle were heated to different temperatures in the 38–61 °C range, and the amount of soluble hNcl remaining at each T value was measured. […] Further CETSAs were performed using various concentrations of the compound (1–20 μM) and the amount of hNcl resisting thermal denaturation at 55.5 °C was then reported in a graph as a function of the concentration of 12 used (Figure S3 and Figure 1E). This experiment allowed the calculation of an EC50 (the compound concentration producing half of the maximum effect on hNcl stabilization) of 5 μM.
HeLa cells were seeded at 1.0 × 10^5 in 12-well plates. The treatment was performed for 2 h using compound 12 at the following concentrations: 0.1, 0.5, 1, 2, 5, 10, 15, and 20 μM. Subsequently, the drug-containing media were removed through centrifugation; the cells were washed with PBS, aliquoted in 0.2 mL tubes, and then heated at 55.5 °C (Tm of hNcl) for 3 min. They were then lysed and analyzed, as reported above. The hNcl/Gapdh density ratio measured at the […] concentration producing the maximum stabilizing effect was set as 100%.
Target sequence in this assay (P19338 whole entry): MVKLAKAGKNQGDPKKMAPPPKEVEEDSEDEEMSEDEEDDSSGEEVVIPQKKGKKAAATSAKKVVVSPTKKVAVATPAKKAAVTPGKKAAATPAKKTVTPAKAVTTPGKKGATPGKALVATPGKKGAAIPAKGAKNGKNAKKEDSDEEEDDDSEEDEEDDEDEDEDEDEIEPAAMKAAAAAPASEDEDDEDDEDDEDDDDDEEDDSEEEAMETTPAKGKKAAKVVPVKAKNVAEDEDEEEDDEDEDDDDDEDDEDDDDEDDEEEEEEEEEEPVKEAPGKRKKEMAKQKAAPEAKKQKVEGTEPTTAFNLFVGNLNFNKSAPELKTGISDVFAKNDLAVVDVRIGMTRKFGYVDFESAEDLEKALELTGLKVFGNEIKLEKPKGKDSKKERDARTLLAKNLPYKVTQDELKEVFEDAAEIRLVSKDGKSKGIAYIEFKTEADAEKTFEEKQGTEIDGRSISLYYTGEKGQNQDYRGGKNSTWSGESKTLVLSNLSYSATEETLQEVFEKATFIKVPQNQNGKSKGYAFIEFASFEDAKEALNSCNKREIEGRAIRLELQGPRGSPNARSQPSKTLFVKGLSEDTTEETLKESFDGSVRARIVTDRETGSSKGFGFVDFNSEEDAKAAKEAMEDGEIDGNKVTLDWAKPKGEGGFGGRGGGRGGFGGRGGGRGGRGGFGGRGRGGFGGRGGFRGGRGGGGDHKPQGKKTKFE

Q: Which “hNcl resistance to protease action (DARTS)” value [1] does the source give for `CC1(CO)CCCC2(C)C1C(O)CC13CC4C(CC12)C4(C(=O)O)C3` (stereo not drawn) [compound 12, 6,19-dihydroxy-ent-trachiloban-17-oic acid] here?
A: Its value is “significant increase”.

Q: What about the “cell accumulation in the subG0/G1 phase” value [2] of the same compound?
A: Its value is “dose-dependent manner”.

Q: And the “number of messengers for Akt” value [3]?
A: The value was “lowered”.

Q: What about the hNcl levels ([4]; 20 μM, 4, 6, or 16 h) of the same compound?
A: Its hNcl levels is “did not modify”.

Q: And the “phosphorylation of hNcl” value ([4]; 20 μM, 4 h treatment)?
A: The value was “inhibited”.

Q: And the “levels of Akt protein” value [5]?
A: Its value is “significantly lowers”.

Q: And the “toxicity: concentration up to which no toxicity was observed” value [6]?
A: Its value is greater than 100 µM.

Q: And the pEC50 [7]?
A: The pEC50 was 5.30.
